Series [1] deals with differentiated C2C12 myotubes. As to the kind of experiment: qRT-PCR gene expression in differentiated C2C12 myotubes. To be noted: 24 h. The format is cell-based, mouse. As for the experimental part:
(§1) Figure 3 MD001 promotes glucose consumption by induction of GLUT expression. HepG2 (A), differentiated 3T3-L1 adipocytes (B), and differentiated C2C12 myotubes (C) were treated with vehicle, MD001 (10, 50 μM), or rosiglitazone (rosi, 10 μM) for 24 h; glucose consumption was examined as described in the Methods section. Cells were harvested for total RNA isolation. Relative expression levels of GLUT2 (D) and GLUT4 (E,F) were quantitated using qRT-PCR. *, **, and ^† vs. vehicle. Data represent the mean ± SD of three independent experiments. *P < 0.05, **P < 0.01, and ^†P < 0.01.
(§2) Figure 4 MD001 stimulates fatty acid oxidation in vitro. […] Relative gene expressions were analysed by qRT-PCR. HepG2 (D), differentiated 3T3-L1 adipocytes (E), and differentiated C2C12 myotubes (F) were treated with vehicle, MD001 (10 μM), or WY14643 (WY) (10 μM) for 24 h and the fatty acid oxidation rate was analysed as described in the Methods section. […]
(§3) Total RNA was isolated using an RNeasy kit (Qiagen, Germantown, MD, USA) according to the manufacturer’s instructions. Complementary DNA (cDNA) was synthesised by reverse transcription using 0.5 μg of total RNA, and quantitative RT-PCR was performed using Power SYBR Green PCR Master Mix (ABI Thermo Fisher Scientific, Foster City, CA, USA) on a StepOne 48-well real-time PCR system (ABI/Thermo Fisher Scientific). […]
(Quantitative PCR measures a nucleic acid by following its amplification.)

The subject of series [2] is differentiated 3T3-L1 adipocytes. As to the kind of experiment: qRT-PCR gene expression in differentiated 3T3-L1 adipocytes. The format is cell-based, mouse. To be noted: 24 h. The method, then:
as §1, §2, §3

For series [3] the test system is unchanged. As to the kind of experiment: In vitro glucose consumption assay, 3T3-L1 adipocytes. The format is cell-based, mouse. To be noted: 10, 50 μM, 24 h. The method, then:
as §1
(§4) The glucose consumption assay was performed as previously described. Briefly, cells were treated with MD001 or rosiglitazone […]. The conditioned medium from cultured cells was harvested and assayed for glucose content using a Glucose Colorimetric Assay Kit II (BioVision Inc., Milpitas, CA, USA).

The target in series [4] is T1, PPARβ/δ (Homo sapiens, UniProt Q03181).
T1 construct: HA; made in house
T1 sequence (Q03181 1-441): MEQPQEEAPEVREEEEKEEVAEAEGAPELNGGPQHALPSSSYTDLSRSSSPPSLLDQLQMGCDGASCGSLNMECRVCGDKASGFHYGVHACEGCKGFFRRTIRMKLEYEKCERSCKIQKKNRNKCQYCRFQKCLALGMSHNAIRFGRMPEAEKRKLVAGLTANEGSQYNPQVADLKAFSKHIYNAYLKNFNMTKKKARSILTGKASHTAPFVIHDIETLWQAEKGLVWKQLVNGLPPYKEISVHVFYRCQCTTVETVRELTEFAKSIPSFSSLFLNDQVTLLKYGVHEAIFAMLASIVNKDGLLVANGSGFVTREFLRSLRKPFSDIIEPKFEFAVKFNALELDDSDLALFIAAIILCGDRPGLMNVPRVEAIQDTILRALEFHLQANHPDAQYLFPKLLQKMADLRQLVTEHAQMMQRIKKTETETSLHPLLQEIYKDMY
As to the kind of experiment: SPR analysis of binding to immobilised HA-PPARβ/δ. To be noted: N.B = No binding up to 500 μM. As for the experimental part: SPR analysis was performed using a Reichert SR7500DC (Reichert Technologies, Depew, NY, USA). HA-PPARα, HA-PPARβ/δ, and HA-PPARγ were purified as previously described[23] and was immobilised on CMDH chips (Reichert Technologies) according to the manufacturer’s instructions. MD001 was loaded in a dose-dependent manner (31.25, 62.5, 125, 250, and 500 μM) for the SPR assay. The dissociation constant (KD) value was determined using the Scrubber2 program (Informer Technologies, Inc., Los Angeles, CA, USA).
On the technique in general: In SPR one partner is held on a chip, and binding of the other changes the refractive index at the surface.

In series [5] the test system is wild type C57BL/6J mice. As to the kind of experiment: Toxicity study in wild type C57BL/6J mice. The format is in vivo, mouse. To be noted: wild type C57/BL6 mice, 50 or 100 mg/kg MD001 for eight weeks. The source says:
Supplementary Table S4. Laboratory findings in control and MD001-treated mice
Results are expressed as the mean ( ± SD).
ALT, alanine transaminase; AST, aspartate transaminase; BUN, blood urea nitrogen; WBC, white blood cells.
Supplementary Table S5. Crystal data and structure refinement for 4a
Identification code exp_524
Empirical formula C27H22O5
Crystal system monoclinic

Series [6] deals with differentiated C2C12 myotubes. As to the kind of experiment: In vitro glucose consumption assay, C2C12 myotubes. The settings on record: 10, 50 μM, 24 h. The format is cell-based, mouse. The method, then: as §1, §4
Series [7] concerns HepG2 cells. As to the kind of experiment: In vitro glucose consumption assay, HepG2. The format is cell-based, human. The settings on record: 10, 50 μM, 24 h. The method, then:
as §1, §4

On to `Cc1c(O)cc(O)c2c(-c3ccccc3)c(C(=O)/C=C/c3ccccc3)c(=O)oc12` [MD001], for which the “expression levels of ACOX and CPT” value in series [1] (10 μM) and in series [2] (10 μM) was “significantly increased” in each case. Further, the “expression of glucose transporter GLUT4” value is recorded as “significantly increased” in series [1] (10, 50 μM) and “significantly increased” in series [2] (10, 50 μM). Further, the glucose consumption entry in series [3], in series [6] and in series [7] was “significantly increased glucose consumption in a dose-dependent manner” in each case. For the same compound, the “KD (M), second row of Supplementary Table S3 (PPARβ/δ)” value in series [4] was “N.B”. Also, the “liver and kidney toxicities” value in series [5] was “not observed”. The “white blood cell counts and haemoglobin (toxicology study)” value in series [5] is on record as “no differences”. Also, the body weight change result in series [5] (data not shown) was “no significant differences”.

Values taken from paper PMC6367362, “MD001, a Novel Peroxisome Proliferator-activated Receptor α/γ Agonist, Improves Glucose and Lipid Metabolism” (Scientific Reports, 2019).
